Source: US20240261422A1, “ANTHRACYCLINE ANTIBODY CONJUGATES” (SEAGEN INC., priority 2021, published 2024)
Read-outs that look alike come from different tables or passages of the source.

Experiments:
[1] = tested on: L540cy, HL; assay: In vitro growth inhibition (CellTiter-Glo, 96 h), L540cy; format: cell-based; conditions: for IC50: L540cy, 96 h, read-out: IC50 (nM) L540cy, HL
Protocol: (§1) Cell culture of cell lines as listed in Table 2-4 in log-phase growth were seeded in 96-well plates and grown for 24 h in cell culture media containing 150 μL RPMI 1640 supplemented with 20% FBS (see Mol. Cancer Ther., 2016, 15(5), 938-945 and Mol. Cancer Ther., 2018, 17(8), 1752-1760). Serial dilutions of free drugs or antibody-drug conjugates (final concentration between 0.004 nM and 1 μM) in cell culture media were prepared at 4× working concentrations; 50 μL of each dilution was added to the 96-well plates. Following addition of the drug or ADC, the cells were incubated with test articles (free drugs or ADCs) for 4 d at 37° C. After 96 h, growth inhibition was assessed by CellTiter-Glo® (Promega, Madison, WI) and luminescence was measured on a plate reader (brand, model).
(§2) Cells were treated for 96 hours with anthracycline analogues listed in Table 2, and then assessed for viability as described in the procedures as described above. […] ND denotes value not determined with that assay for the specified compound.
(§3) ADCs were prepared by full reduction of interchain disulfides to reveal 8-conjugatable cysteines/antibody, and subsequent alkylation with the maleimide-containing drug-linkers (Compounds 14, 18, 21, 24, 29, 32, 33, 34, and 48) according to the procedures described in Mol. Cancer Ther. 2018, 17(8). 1752-1760. Conjugates of antibody cOKT9 were prepared with anthracycline linkers. Cancer cell lines were treated with cOKT9 ADCs (average DAR of 8:1) for 96 h and then assessed for viability. […] ND denotes value not determined with that assay for the specified compound.
(§4) Anti-CD30 ADCs comprising cAC10 antibody conjugated to drug-linkers 24, 32, 29, 18, 14, and 48 with an average DAR of 4 were prepared for evaluation on a CD30-expressing lymphoma cell line panel. […] Anti-CD30 conjugates bearing the PNU linkers 24, 32, 29, 18, and 14 were active on L540cy, DEL, and Karpas299 lymphoma cell lines, and conjugate 48 was active on L540cy and DEL cell lines, with IC50s ranging from 0.2-4 ng/mL.

[2] = tested on: 786-O, MDR + RCC; assay: In vitro growth inhibition (CellTiter-Glo, 96 h), 786-O; format: cell-based; conditions: for IC50: Homo sapiens, read-out: IC50 (nM) 786-O, MDR + RCC; for IC50 (ng/mL) 786-O, MDR + RCC: cOKT9 ADCs, average DAR 8, 96 h
Protocol: as §1, §2, §3

[3] = tested on: BxPC3, PancCa; assay: In vitro growth inhibition (CellTiter-Glo, 96 h), BxPC3; format: cell-based; conditions: for IC50: Homo sapiens, read-out: IC50 (nM) BxPC3, PancCa; for IC50 (ng/mL) BxPC3, PancCa: cOKT9 ADCs, average DAR 8, 96 h
Protocol: as §1, §2, §3

[4] = tested on: HL60, AML; assay: In vitro growth inhibition (CellTiter-Glo, 96 h), HL60; format: cell-based; conditions: for IC50: Homo sapiens, read-out: IC50 (nM) HL60, AML; for IC50 (ng/mL) HL60, AML: cOKT9 ADCs, average DAR 8, 96 h
Protocol: as §1, §2, §3

[5] = tested on: HL60/RV, MDR + AML; assay: In vitro growth inhibition (CellTiter-Glo, 96 h), HL60/RV; format: cell-based; conditions: for IC50: Homo sapiens, read-out: IC50 (nM) HL60/RV, MDR + AML; for IC50 (ng/mL) HL60/RV, MDR + AML: cOKT9 ADCs, average DAR 8, 96 h
Protocol: as §1, §2, §3

[6] = tested on: L540cy, 786-O, BxPC3, HL60, HL60/RV; assay: cells; conditions: 96 h, read-out: IC50 values on the cancer lines tested
[7] = tested on: L428, MDR + HL; assay: In vitro growth inhibition (CellTiter-Glo, 96 h), L428; format: cell-based; conditions: cAC10 (anti-CD30) ADCs, average DAR 4
Protocol: as §1, §4

[8] = tested on: DEL, ALCL; assay: In vitro growth inhibition (CellTiter-Glo, 96 h), DEL; format: cell-based; conditions: cAC10 (anti-CD30) ADCs, average DAR 4
Protocol: as §1, §4

[9] = tested on: Karpas299, ALCL; assay: In vitro growth inhibition (CellTiter-Glo, 96 h), Karpas299; format: cell-based; conditions: cAC10 (anti-CD30) ADCs, average DAR 4
Protocol: as §1, §4

[10] = tested on: Ramos, CD30 − NHL; assay: In vitro growth inhibition (CellTiter-Glo, 96 h), Ramos; format: cell-based; conditions: cAC10 (anti-CD30) ADCs, average DAR 4
Protocol: as §1, §4

[11] = tested on: L540cy Hodgkin's lymphoma xenograft; assay: L540cy CD30+ Hodgkin lymphoma xenograft model; format: in vivo, SCID mice; conditions: cAC10 S239C ADCs, average DAR 2; single dose i.p. at about 100 mm^3
Protocol: (§5) All experiments were conducted in concordance with the Animal Care and Use Committee in a facility fully accredited by the Association for Assessment and Accreditation of Laboratory Animal Care. Efficacy experiments were conducted using the L540cy Hodgkin's lymphoma and DEL/BVR anaplastic large cell lymphoma xenograft models (Mol. Cancer Ther., 2018, 17(8), 1752-1760). Tumor cells, as a cell suspension, were implanted subcutaneously in immune-compromised SCID female mice. Upon tumor engraftment, the mice were randomized into study groups when the average tumor volume reached about 100 mm^3. The ADCs were dosed once via intraperitoneal injection. Tumor volume as a function of time was determined using the formula (L×W2)/2. Animals were euthanized when tumor volumes reached 1000 mm^3.
Anti-CD30 conjugates bearing PNU drug-linkers 29, 18, and 14 were evaluated in a CD30-expressing xenograft model as described above. cAC10 antibody with the S239C mutation is conjugated to the PNU drug linkers with an average DAR of 2 to minimize the effects of ADC pharmacokinetics. Tumor-bearing mice were administered a single dose intraperitoneally (i.p.) of test article once the average tumor volume reached 100 mm^3 (typically on day 8). Untreated mice were used as negative controls.

[12] = tested on: DEL/BVR anaplastic large cell lymphoma xenograft; assay: DEL/BVR MDR+, CD30+ anaplastic large cell lymphoma xenograft model; format: in vivo, SCID mice; conditions: cAC10 S239C ADCs, average DAR 2; 3 mg/kg single dose i.p.
Protocol: as §5
Anti-CD30 conjugates bearing PNU drug-linkers 29, 18, and 14 were further evaluated in a DEL/BVR MDR+, CD30+ anaplastic large cell lymphoma xenograft model. cAC10 antibody with the S239C mutation is conjugated to the PNU drug linkers with an average DAR of 2 to minimize the effects of ADC pharmacokinetics. Tumor-bearing mice were administered a 3 mg/kg single dose intraperitoneally (i.p.) of test article once the average tumor volume reached 100 mm^3 (typically on day 4). […] However, the conjugate comprising PNU linker 29 appeared to be non-efficacious, and only provided minimal tumor growth delay (FIG. 2). Untreated mice were used as negative controls.

[13] = tested on: L540cy, 786-O, BxPC3, HL60, HL60/RV; conditions: 24 h
[14] = 786-0, anthracycline free drugs, 96 h
[15] = BXPC-3, anthracycline free drugs, 96 h
[16] = HL-60, anthracycline free drugs, 96 h
[17] = cAC10 (anti-CD30) ADCs, average DAR 4
[18] = cOKT9 ADCs, average DAR 8, 96 h

SMILES | IC50 ([1]; anthracycline free drugs) | IC50 [2, 14] | IC50 [3, 15] | IC50 [4, 16] | IC50 [5, 16] | IC50 [6] | IC50 (ng/mL) L540cy, HL [1, 17] | IC50 (ng/mL) L540cy, HL [1, 18] | IC50 (ng/mL) 786-O, MDR + RCC [2] | IC50 (ng/mL) BxPC3, PancCa [3] | IC50 (ng/mL) HL60, AML [4] | IC50 (ng/mL) HL60/RV, MDR + AML [5] | IC50 (ng/mL) L428, MDR + HL [7] | IC50 (ng/mL) DEL, ALCL [8] | IC50 (ng/mL) Karpas299, ALCL [9] | IC50 (ng/mL) Ramos, CD30 − NHL [10] | IC50s of cOKT9 conjugates [13] | further results
COc1cccc2c1C(=O)c1c(O)c3c(c(O)c1C2=O)C[C@@](O)(C(=O)CO)C[C@@H]3O[C@H]1C[C@H](N)[C@H](O)[C@H](C)O1 [Compound 1, Doxorubicin, reference compound] | 10 to 100 nM | 10 to 100 nM | 100 to 1000 nM | 10 to 100 nM | 100 to 1000 nM | 13 to 390 nM |  |  |  |  |  |  |  |  |  |  |  | 
COc1cccc2c1C(=O)c1c(O)c3c(c(O)c1C2=O)C[C@@](O)(C(=O)O)C[C@@H]3O[C@H]1C[C@H](N)[C@H](O)[C@H](C)O1 [Compound 2, (2S,4S)-4-(((2R,4S,5S,6S)-4-amino-5-hydroxy-6-methyltetrahydro-2H-pyran-2-yl)oxy)-2,5,12-trihydroxy-7-methoxy-6,11-dioxo-1,2,3,4,6,11-hexahydrotetracene-2-carboxylic acid] | > 1000 nM | > 1000 nM | > 1000 nM | > 1000 nM | > 1000 nM | > 1000 nM |  |  |  |  |  |  |  |  |  |  |  | 
COc1cccc2c1C(=O)c1c(O)c3c(c(O)c1C2=O)C[C@@](O)(C(=O)CO)C[C@@H]3O[C@H]1C[C@H](N2CCO[C@H](OC)C2)[C@H](O)[C@H](C)O1 [Compound 3, Nemorubicin, reference compound] |  |  |  |  |  | 2 to 3 nM |  |  |  |  |  |  |  |  |  |  |  | IC50 [1]: < 10 nM; IC50 ([2]; 786-0, 96 h): < 10 nM; IC50 ([3]; BXPC-3, 96 h): < 10 nM
COc1cccc2c1C(=O)c1c(O)c3c(c(O)c1C2=O)C[C@@](O)(C(=O)O)C[C@@H]3O[C@H]1C[C@H]2[C@H](O[C@@H]3[C@@H](OC)OCCN32)[C@H](C)O1 [Compound 6, (2S,4S)-2,5,12-trihydroxy-7-methoxy-4-(((1S,3R,4aS,9S,9aR,10aS)-9-methoxy-1-methyloctahydro-1H-pyrano[4′,3′:4,5]oxazolo[2,3-c][1,4]oxazin-3-yl)oxy)-6,11-dioxo-1,2,3,4,6,11-hexahydrotetracene-2-carboxylic acid] | < 10 nM | < 10 nM | 10 to 100 nM |  |  | 5 to 19 nM |  |  |  |  |  |  |  |  |  |  |  | IC50 ([4]; HL-60, 96 h): 10 to 100 nM; IC50 ([5]; HL-60, 96 h): 10 to 100 nM
COc1cccc2c1C(=O)c1c(O)c3c(c(O)c1C2=O)C[C@@](O)(C(=O)NCCNC(=O)CCN1C(=O)C=CC1=O)C[C@@H]3O[C@H]1C[C@H]2[C@H](O[C@@H]3[C@@H](OC)OCCN32)[C@H](C)O1 [Compound 14, (2S,4S)—N-(2-(3-(2,5-dioxo-2,5-dihydro-1H-pyrrol-1-yl)propanamido)ethyl)-2,5,12-trihydroxy-7-methoxy-4-(((1S,3R,4aS,9S,9aR,10aS)-9-methoxy-1-methyloctahydro-1H-pyrano[4′,3′:4,5]oxazolo[2,3-c][1,4]oxazin-3-yl)oxy)-6,11-dioxo-1,2,3,4,6,11-hexahydrotetracene-2-carboxamide] |  |  |  |  |  |  | B (1 ng/mL≤IC50<10 ng/mL) | A (IC50<10 ng/mL) | A (IC50<10 ng/mL) | A (IC50<10 ng/mL) | C (100 ng/mL≤IC50<1000 ng/mL) | D (IC50≥1000 ng/mL) | B (1 ng/mL≤IC50<10 ng/mL) | B (1 ng/mL≤IC50<10 ng/mL) | A (IC50<1 ng/mL) | E (IC50≥500 ng/mL) | 1 to 150 ng/mL | antitumor activity, L540cy xenograft (FIG. 1) [11]: active with a majority of animals in a complete regression; antitumor activity, DEL/BVR xenograft (FIG. 2) [12]: efficacious in suppressing tumor growth
COc1cccc2c1C(=O)c1c(O)c3c(c(O)c1C2=O)C[C@@](O)(C(=O)N(C)CCN(C)C(=O)OCc1ccc(NC(=O)[C@H](C)NC(=O)[C@@H](NC(=O)CCN2C(=O)C=CC2=O)C(C)C)cc1)C[C@@H]3O[C@H]1C[C@H]2[C@H](O[C@@H]3[C@@H](OC)OCCN32)[C@H](C)O1 [Compound 32, 4-((S)-2-((S)-2-(3-(2,5-dioxo-2,5-dihydro-1H-pyrrol-1-yl)propanamido)-3-methylbutanamido)propanamido)benzyl methyl(2-((2S,4S)-2,5,12-trihydroxy-7-methoxy-4-(((1S,3R,4aS,9S,9aR,10aS)-9-methoxy-1-methyloctahydro-1H-pyrano[4′,3′:4,5]oxazolo[2,3-c][1,4]oxazin-3-yl)oxy)-N-methyl-6,11-dioxo-1,2,3,4,6,11-hexahydrotetracene-2-carboxamido)ethyl)carbamate] |  |  |  |  |  |  | C (10 ng/mL≤IC50<100 ng/mL) | B (10 ng/mL≤IC50<100 ng/mL) | C (100 ng/mL≤IC50<1000 ng/mL) | B (10 ng/mL≤IC50<100 ng/mL) | B (10 ng/mL≤IC50<100 ng/mL) | C (100 ng/mL≤IC50<1000 ng/mL) | E (IC50≥500 ng/mL) | B (1 ng/mL≤IC50<10 ng/mL) | B (1 ng/mL≤IC50<10 ng/mL) | D (100 ng/mL≤IC50<500 ng/mL) | 1 to 150 ng/mL | activity of cOKT9 conjugates on multidrug resistant HL60/RV ([5]; cOKT9 ADCs DAR 8, result in words): active
